Experimental data published in ChEMBL document CHEMBL1126269, “Optimization of the quinoline and substituted benzyl moieties of a series of phenyltetrazole leukotriene D4 receptor antagonists” (J Med Chem, 1992).
Several values for one entry are separate records, joined by “and”; a condition that tells them apart may be missing. Equal values may be shown once.

What follows are molecules tested on Cysteinyl leukotriene receptor (Cavia porcellus) (assay: In vitro inhibition of leukotriene D4 induced contractions of isolated guinea pig ileum.).

`O=C(O)Cc1ccccc1Cn1nnc(-c2cccc(OCc3ccc4ccccc4n3)c2)n1` and `O=C(O)Cc1ccccc1Cn1nnc(-c2cccc(/C=C/c3ccc4ccccc4n3)c2)n1` are within 0.2 log units of each other in pKB: 7.6 for the first, 7.7 for the second.

Compared with `COc1cccc(C(=O)O)c1Cn1nnc(-c2cccc(OCc3ccc4ccccc4n3)c2)n1`, `O=C(O)c1ccccc1Cn1nnc(-c2cccc(OCc3ccc4ccc(Cl)cc4n3)c2)n1` is higher in pKB: 8.4 for the first, 8.7 for the second.

Compared with `COc1cc(C(=O)O)ccc1Cn1nnnc1-c1cccc(/C=C/c2ccc3ccccc3n2)c1`, `COc1cc(C(=O)O)ccc1Cn1nnc(-c2cccc(/C=C/c3ccc4ccccc4n3)c2)n1` is lower in pKB: 8.2 for the first, 7.4 for the second.

First: O=C(O)c1ccccc1Cn1nnnc1-c1cccc(OCc2ccc3ccccc3n2)c1
Second: O=C(O)c1ccccc1Cn1nnc(-c2cccc(OCc3nc4ccccc4s3)c2)n1
The pKB of the first is lower: 6.5 for the first, 8.3 for the second.

First: O=C(O)c1ccccc1CCn1nnc(-c2cccc(/C=C/c3ccc4ccc(Cl)cc4n3)c2)n1
Second: O=C(O)c1ccccc1Cn1nnc(-c2cccc(/C=C/c3ccc4ccc(Cl)cc4n3)c2)n1
The pKB of the first is lower: 7.9 for the first, 8.8 for the second.

First: O=C(O)c1sccc1Cn1nnc(-c2cccc(/C=C/c3ccc4ccc(Cl)cc4n3)c2)n1
Second: O=C(O)c1cc(F)ccc1Cn1nnc(-c2cccc(/C=C/c3ccc4ccc(Cl)cc4n3)c2)n1
The pKB of the first is lower: 7.8 for the first, 9.1 for the second.

Compared with `O=C(O)c1cccc(Cn2nnc(-c3cccc(/C=C/c4ccc5ccccc5n4)c3)n2)c1`, `O=C(O)c1ccccc1Cn1nnc(-c2cccc(/C=C/c3ccc4ccccc4n3)c2)n1` is higher in pKB: 7.1 for the first, 8.5 for the second.

First: O=C(O)c1ccoc1Cn1nnc(-c2cccc(/C=C/c3ccc4ccccc4n3)c2)n1
Second: O=C(O)c1ccccc1Cn1nnc(-c2cccc(CSc3ccc4ccccc4n3)c2)n1
The pKB of the first is higher: 7.9 for the first, 7 for the second.

`O=C(O)c1ccccc1Cn1nnc(-c2cccc(OCc3ccc4ccccc4n3)c2)n1` was tested, and the pKB was 8.3 and 8.4.

What follows are molecules tested against T1, Cysteinyl leukotriene receptor 1 (Cavia porcellus) (UniProt Q2NNR5) (assay: Antagonistic activity in vitro against leukotriene-D4 (LTD4) induced guinea pig ileum contraction).
T1 sequence (whole entry): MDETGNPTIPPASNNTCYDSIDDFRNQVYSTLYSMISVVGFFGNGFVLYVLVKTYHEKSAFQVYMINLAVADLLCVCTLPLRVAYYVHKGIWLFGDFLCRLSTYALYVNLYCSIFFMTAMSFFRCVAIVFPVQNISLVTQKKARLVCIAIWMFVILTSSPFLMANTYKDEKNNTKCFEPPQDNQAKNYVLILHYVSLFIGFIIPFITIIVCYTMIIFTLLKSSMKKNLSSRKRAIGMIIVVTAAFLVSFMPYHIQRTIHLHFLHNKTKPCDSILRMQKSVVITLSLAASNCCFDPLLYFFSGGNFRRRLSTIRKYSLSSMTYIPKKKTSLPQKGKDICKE
Assay type: functional, tissue-based

`c1cc(OCc2ccc3ccccc3n2)cc(-c2nnn(Cc3ccccc3-c3nn[nH]n3)n2)c1` gave a pKB of 9.1.
